Here are results for six compounds from ChEMBL document CHEMBL1134094, “Cell permeability as a parameter for lead generation in the protein Tyrosine kinase inhibition field” (2001).

The test system of experiment [1] is Caco-2. The experiment in a line: Computed polar surface area (PSA) for the compound […]. The experiment is classed as functional.
The test system of experiment [2] is Caco-2. The experiment in a line: Substrate affinity was determined; passive. The experiment is classed as functional, cell-based. The note with it: Homo sapiens.
Experiment [3] has as its system Caco-2. Description: Cell membrane permeability for the compound determined by human Caco-2 monolayer assay (10e-5 cm/min). In kind it is functional.

As for `COc1ccc(Cn2cc(-c3ccc(OC)cc3)c3nc(O)ccc32)cc1`, the “3D PSA” value in experiment [1] was 55.1. Besides, the Affinity result in experiment [2] is given as “passive”. The Pm in experiment [3] was 83 10e-5*cm/min.

Take `COc1ccc(Cn2cc(-c3ccc(OC)cc3)c3c(N)ncnc32)cc1`: the “3D PSA” value in experiment [1] is 69.2. Moreover, in experiment [2], the Affinity result was “passive”. Besides, the Pm in experiment [3] is 61.9 10e-5*cm/min.

`Nc1ncnc2c1c(-c1ccccc1)cn2Cc1ccccc1`: the “3D PSA” value in experiment [1] is listed as 46.6.

For the compound `Oc1ccc2c(n1)c(-c1ccccc1)cn2Cc1ccccc1`, the “3D PSA” value in experiment [1] is reported as 33.4.

In the case of `COc1ccc(-c2cn(Cc3ccccc3)c3ccc(O)nc23)cc1`, the “3D PSA” value in experiment [1] is given as 45. Further, in experiment [2], the Affinity entry was “passive”. The Pm in experiment [3] was 90.5 10e-5*cm/min.

`COc1ccc(-c2cn(Cc3ccccc3)c3ncnc(N)c23)cc1`: the “3D PSA” value in experiment [1] was 58.2. Also, the Affinity entry in experiment [2] is on record as “passive”. Also, the Pm in experiment [3] is given as 78.2 10e-5*cm/min.
